Assay results reported in patent US20100197584A1, “USE OF CURCUMIN TO BLOCK BRAIN TUMOR FORMATION IN MICE” (Research Foundations of the City University of- New York, priority 2007, published 2010).

How the values were obtained:
rat glioma cells = rat glioma cells in vitro (Karmakar 2006; Dhandapani 2007); cited from earlier work
[1] = Permeability of the blood-brain barrier to curcumin (HPLC of brain after tail vein injection); assay type: in vivo, mouse
Description: A curcumin solution (200 μl of 667 μM curcumin in PBS containing 3% DMSO) was injected through the tail vein of each mouse, the mice were sacrificed after 15 min, 30 min, and 2 hours, and brain regions (forebrain, hippocampus, and hypothalamus) as well as blood were collected for analysis. Each tissue fraction was diluted into 300 μl of water, homogenized, and then diluted with 700 μl of acetonitrile. Proteins and other insoluble substances were separated by centrifugation at 8000 rpm in a table-top Eppendorf microcentrifuge, and the supernatants were transferred to fresh tubes and then evaporated by blowing in nitrogen gas. The blood (100 μl) was diluted with 40 μl EDTA (500 mM) and 160 μl of water. This mixture was diluted with 700 μl of actonitrile, vortexed, protein and debris separated by centrifugation and then the supernatant evaporated under nitrogen. The residues obtained were dissolved in 50 μl of acetonitrile:water (70:30) and 30 μl of this solution injected for HPLC analysis on a C18 reverse-phase column. A standard 0.1 mM solution of curcumin dissolved in acetonitrile:water (70:30) was injected for comparison. The mobile phase was a 30-70% gradient of acetonitrile in water containing 0.1% trifluoroacetic acid (TFA). Curcumin eluted as a closely spaced triplet with the strongest peak eluting at 12.8 min.

[2] = system: B16F10 (mouse melanoma) cells; assay: Caspase-3/7 assay in B16F10 cells; assay type: cell-based; settings: 20 μM and 50 μM, 48 h or 96 h (FIG. 1)
Description: (§1) Cells. B16F10 (mouse melanoma), GL261 (mouse glioma), HOG (human oligodendroglioma), A549 (human lung cancer), and […] (mouse neuroblastoma) cells were cultured separately in DMEM containing 10% (v/v) fetal bovine serum and 1% (v/v) penicillin-streptomycin (PS) and allowed to grow to 40% confluence in a 96-well plate. Curcumin Treatment. Two hours before drug treatment, the medium in each well was replaced with 200 μl Neurobasal medium supplemented with 2% (v/v) B27 and 1% (v/v) PS (Drug-treatment Medium). A stock solution (40 mM) of curcumin was prepared in sterile dimethyl sulfoxide (DMSO) (Example 1). Through serial dilution of each stock solution in Drug-treatment Medium, the following concentrations were obtained: 20 μM and 50 μM (for caspase 3/7 assays) or 25 μM and 50 μM (for MTT assays). Drug-treatment Medium in each well was aspirated, and a drug solution of each concentration or carrier-containing medium (control) was added to triplicate wells of cells (50 μl/well). […] Additionally, the background absorbance was determined from parallel wells containing only the Drug-treatment Medium plus a particular concentration of the drug (no cells). […] Fluorescence in each well was measured using the FLx 800 plate reader (Bio-Tek Instruments, Winooski, Vt.) set at 485/20 nm excitation and 528/20 nm emission wavelengths and the sensitivity of 70. […]

[3] = system: A549 (human lung cancer) cells; assay: Caspase-3/7 assay in A549 cells; assay type: cell-based; settings: 20 μM and 50 μM, 48 h (FIG. 5)
Description: as §1

breast tumor cell lines = settings: several breast tumor cell lines (Mehta et al. 1997); cited from earlier work
phospho-Akt = assay: Western blot of B16F10 cells, phospho-Akt; assay type: cell-based, mouse; settings: 50 μM (FIG. 9)
Description: B16F10 cells were cultured in 10-cm plates and then treated in duplicate with carrier or curcumin (50 μM). Following treatment for appropriate time periods, the cells were washed with PBS, lysed in RIPA buffer (PBS containing 1% Nonidet P40, 0.5% sodium deoxycholate, 0.1% SDS, 0.5 mM Na3VO4 plus freshly added PMSF and protease inhibitor cocktail; Boeringer-Roche), and then 20 μg of lysate protein (per lane) were analyzed by SDS-10% PAGE and Western blot analysis. Antibody concentrations used were: anti-phospho-NF-κB (1:1000) (Santa Cruz Biotechnology, Santa Cruz, Calif.), anti-phospho-Akt (1:5000) (Cell Signaling, CA), anti-cyclin D1 (1:1000) (Cell Signaling, CA), anti-BclXL (1:500) (Santa Cruz Biotechnology), anti-VEGF (1:500) (Santa Cruz Biotechnology), and anti-β-actin (1:1000) (Sigma, St. Louis, Mo.).

curcumin in mouse brain (HPLC trace) ([1]; 15 minutes after tail vein injection of 200 μl of 667 μM curcumin (FIG. 7b)): presence of curcumin
curcumin in mouse brain (HPLC trace) ([1]; 30 minutes after tail vein injection of 200 μl of 667 μM curcumin (FIG. 7c)): presence of curcumin
time by which curcumin was completely metabolized ([1]; mouse brain, after tail vein injection of 200 μl of 667 μM curcumin (FIG. 7d)): ≤ 2 h
Compound: COc1cc(/C=C/C(=O)CC(=O)/C=C/c2ccc(O)c(OC)c2)ccc1O [curcumin]
apoptosis (rat glioma cells): triggers apoptosis
caspase-3/7 activity [2]: increased
caspase-3/7 activity [3]: increased
proliferation (breast tumor cell lines): antiproliferative effects
phospho-Akt (Western blot) (phospho-Akt): suppression
